Measurements published in patent US12486280B2, “CDK inhibitors and uses thereof” (California Institute of Technology, priority 2018, dated 2025).
pIC50, pKi: −log10 of the molar value. Values after ≈ are worked out from the molar mass of the structure shown. Where two headings read alike, the source gives them in different places.

Assays:
CDK4 = CDK4 (Homo sapiens (Human), UniProt P11802); test: Cdk4 and 6 Enzymatic Inhibition Assay (radiometric 33PanQinase, Ki determination); assay type: biochemical
Chain of CDK4 (P11802 whole entry): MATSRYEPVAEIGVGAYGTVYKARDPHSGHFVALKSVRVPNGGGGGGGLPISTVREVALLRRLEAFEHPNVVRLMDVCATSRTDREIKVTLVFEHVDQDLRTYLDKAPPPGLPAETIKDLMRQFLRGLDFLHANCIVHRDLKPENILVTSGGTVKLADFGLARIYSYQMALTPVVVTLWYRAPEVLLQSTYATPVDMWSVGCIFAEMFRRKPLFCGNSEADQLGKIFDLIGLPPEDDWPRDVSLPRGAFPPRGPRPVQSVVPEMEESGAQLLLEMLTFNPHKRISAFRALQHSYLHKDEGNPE
Chain of CDK4 (P24385 whole entry partner): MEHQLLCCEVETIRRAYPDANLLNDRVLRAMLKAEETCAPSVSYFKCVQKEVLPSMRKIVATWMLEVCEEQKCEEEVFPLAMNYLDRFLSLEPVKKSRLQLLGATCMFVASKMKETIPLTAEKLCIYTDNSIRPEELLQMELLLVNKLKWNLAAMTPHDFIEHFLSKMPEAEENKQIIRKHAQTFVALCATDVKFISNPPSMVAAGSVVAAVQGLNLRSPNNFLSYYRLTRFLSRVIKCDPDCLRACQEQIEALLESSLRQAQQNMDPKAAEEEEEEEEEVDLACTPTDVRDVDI
Summary of the method: (§1)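 Radiometric 33PanQinase assay in 70 mM HEPES-NaOH pH 7.5 with 3 mM MgCl2, 3 mM MnCl2, [γ-33P]-ATP, kinase and substrate; 60 min at 30° C, 1% DMSO final. Ten final concentrations from 2×10^−6 M to 6×10^−11 M; 33Pi incorporation counted by scintillation after H3PO4 stop.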

CDK6 = CDK6 (Homo sapiens (Human), UniProt Q00534); test: as above; assay type: biochemical
Chain of CDK6 (Q00534 whole entry): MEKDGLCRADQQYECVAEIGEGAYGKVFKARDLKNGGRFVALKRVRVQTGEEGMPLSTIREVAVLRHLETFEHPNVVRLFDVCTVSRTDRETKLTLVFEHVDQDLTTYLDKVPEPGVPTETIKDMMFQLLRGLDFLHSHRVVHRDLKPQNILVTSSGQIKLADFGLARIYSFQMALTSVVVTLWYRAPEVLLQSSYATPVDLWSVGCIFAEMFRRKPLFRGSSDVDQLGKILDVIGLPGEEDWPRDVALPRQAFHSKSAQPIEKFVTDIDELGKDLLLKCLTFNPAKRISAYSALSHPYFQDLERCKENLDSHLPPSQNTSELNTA
Chain of CDK6 (P24385 whole entry partner): as the sequence (P24385 whole entry partner) above
Summary of the method: as §1

[1] = system: drug-sensitive cell lines of Table 2 (EFM-19, MDA-MB-453, T-47D, ZR-75-1, NCI-H441, OVTOKO, NCI-H1838); test: Cell Line Growth Retardation Assay, sensitive cohort; assay type: cell-based, human; details: for pIC50: Homo sapiens, geometric mean over sensitive cohort, 6 days growth, read-out: AvgSensIC50; for Ther Window: average IC50 drug-resistant group divided by average IC50 drug-sensitive group
Summary of the method: (§2)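 Cells rested 24 h, then exposed 6 days to compound at 10, 2, 0.4, 0.08, 0.016 and 0.0032 μM; counted by imaging on day 0 and day 6. Growth inhibition as ratio of population doublings versus vehicle; IC50 from curve fits, cohort values as geometric means.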

[2] = system: drug-resistant cell lines of Table 2 (NCI-H1437, OV207, HCC1806, NCI-H2172); test: Cell Line Growth Retardation Assay, resistant cohort; assay type: cell-based, human; details: Homo sapiens, […], geometric mean over resistant cohort; 6 days growth; read-out: AvgResIC50
Summary of the method: as §2

[3] = Compound Solubility Assay (kinetic solubility); assay type: physicochemical
Experimental: The relative kinetic solubility of each compound was determined at both low (1.2) and neutral (7.4) pH. Compounds were prepared at 10 mM stocks. […] Compounds were allowed to shake at room temperature for 24 hours in 50 mM phosphate buffer pH 7.4, or in SGF buffer pH 1.2 at 37° C. for 24 hours.

[4] = mouse, in vivo, po
Experimental: For maximum tolerated dose (MTD) determination studies, non-tumor bearing CD-athymic nude mice were randomized into 5 treatment groups (5 mice per group) and treated with either 500, 400, 300, 200, or 100 mg/kg of compound by daily PO. Mice were weighed daily and % body weight loss was calculated relative to individual mouse body weights at the start of treatment. […] MTD was determined as the highest dose at which a mean body weight loss of <10% over 14 days of dosing was observed.

[5] = Caco-2 Assay (Papp A to B); details: human, Caco-2, pH 7.4
Experimental: The degree of bi-directional human intestinal permeability for compounds was estimated using a Caco-2 cell permeability assay. Caco-2 cells were seeded onto polyethylene membranes in 96-well plates. The growth medium was refreshed every 4 to 5 days until cells formed a confluent cell monolayer. HBSS with 10 mM HEPES at pH 7.4 was used as the transport buffer. Compounds were tested at 2 μM bi-directionally in duplicate. Digoxin, nadolol and metoprolol were included as standards. Digoxin was tested at 10 μM bi-directionally in duplicate, while nadolol and metoprolol were tested at 2 μM in the A to B direction in duplicate. The final DMSO concentration was adjusted to less than 1% for all experiments. The plate was incubated for 2 hours in a CO2 incubator at 37° C., with 5% CO2 at saturated humidity. After incubation, all wells were mixed with acetonitrile containing an internal standard, and the plate was centrifuged at 4,000 rpm for 10 minutes. 100 μL supernatant was collected from each well and diluted with 100 μL distilled water for LC/MS/MS analysis. Concentrations of test and control compounds in starting solution, donor solution, and receiver solution were quantified by LC/MS/MS, using peak area ratio of analyte/internal standard. The apparent permeability coefficient Papp (cm/s) was calculated using the equation: Papp=(dCr/dt)×Vr/(A×C0) Where dCr/dt is the cumulative concentration of compound in the receiver chamber as a function of time (μM/s); Vr is the solution volume in the receiver chamber (0.075 mL on the apical side, 0.25 mL on the basolateral side); A is the surface area for the transport, which is 0.0804 cm^2 for the area of the monolayer; C0 is the initial concentration in the donor chamber (μM).

[6] = system: CYP isozymes (IC50s averaged over the isozymes); test: CYP Enzymatic Inhibition Assay in human liver microsomes
Experimental: Inhibition of various CYP isozymes was measured for each compound using a CYP enzyme inhibition assay in human liver microsomes (HLM). Compounds and standard inhibitors were prepared at a 100× working solutions. Substrates or PBS were added to the corresponding wells followed by addition of compounds, solvent or positive control working solution to corresponding wells. HLMs were added to the pre-warmed (37° C.) plate and mixed with NADPH cofactor for 10 minutes at 37° C. The reaction was terminated by adding 400 μL cold stop solution (200 ng/mL Tolbutamide and 200 ng/mL Labetalol in ACN). The plate was centrifuged at 4,000 rpm for 20 minutes, and supernatant was transferred to 100 μL HPLC water followed by LC/MS/MS analysis.

[7] = Measurement of Compound Metabolic Stability in hepatocytes
Experimental: The metabolic stability of compounds was determined in hepatocytes from mice and rats. Compounds were diluted to 5 μM in Williams' Medium E from 10 mM stock solutions. 10 μL of each compound was aliquoted into a well of a 96-well plate and reactions were started by aliquoting 40 μL of a 625,000 cells/mL suspension into each well. The plate was incubated at 37° C. with 5% CO2. At each corresponding time point, the reaction was stopped by quenching with ACN containing internal standards (IS) at a 1:3. Plates were shaken at 500 rpm for 10 min, and then centrifuged at 3,220×g for 20 minutes. Supernatants were transferred to another 96-well plate containing a dilution solution. Supernatants were analyzed by LC/MS/MS. Compound half-life was estimated using the following equation:

hERG potassium channels = hERG potassium channels (Homo sapiens (Human), UniProt Q12809); test: hERG Inhibition Assay (QPatch automated patch clamp, CHO cells); details: percent of control current
Chain of hERG potassium channels (Q12809 whole entry): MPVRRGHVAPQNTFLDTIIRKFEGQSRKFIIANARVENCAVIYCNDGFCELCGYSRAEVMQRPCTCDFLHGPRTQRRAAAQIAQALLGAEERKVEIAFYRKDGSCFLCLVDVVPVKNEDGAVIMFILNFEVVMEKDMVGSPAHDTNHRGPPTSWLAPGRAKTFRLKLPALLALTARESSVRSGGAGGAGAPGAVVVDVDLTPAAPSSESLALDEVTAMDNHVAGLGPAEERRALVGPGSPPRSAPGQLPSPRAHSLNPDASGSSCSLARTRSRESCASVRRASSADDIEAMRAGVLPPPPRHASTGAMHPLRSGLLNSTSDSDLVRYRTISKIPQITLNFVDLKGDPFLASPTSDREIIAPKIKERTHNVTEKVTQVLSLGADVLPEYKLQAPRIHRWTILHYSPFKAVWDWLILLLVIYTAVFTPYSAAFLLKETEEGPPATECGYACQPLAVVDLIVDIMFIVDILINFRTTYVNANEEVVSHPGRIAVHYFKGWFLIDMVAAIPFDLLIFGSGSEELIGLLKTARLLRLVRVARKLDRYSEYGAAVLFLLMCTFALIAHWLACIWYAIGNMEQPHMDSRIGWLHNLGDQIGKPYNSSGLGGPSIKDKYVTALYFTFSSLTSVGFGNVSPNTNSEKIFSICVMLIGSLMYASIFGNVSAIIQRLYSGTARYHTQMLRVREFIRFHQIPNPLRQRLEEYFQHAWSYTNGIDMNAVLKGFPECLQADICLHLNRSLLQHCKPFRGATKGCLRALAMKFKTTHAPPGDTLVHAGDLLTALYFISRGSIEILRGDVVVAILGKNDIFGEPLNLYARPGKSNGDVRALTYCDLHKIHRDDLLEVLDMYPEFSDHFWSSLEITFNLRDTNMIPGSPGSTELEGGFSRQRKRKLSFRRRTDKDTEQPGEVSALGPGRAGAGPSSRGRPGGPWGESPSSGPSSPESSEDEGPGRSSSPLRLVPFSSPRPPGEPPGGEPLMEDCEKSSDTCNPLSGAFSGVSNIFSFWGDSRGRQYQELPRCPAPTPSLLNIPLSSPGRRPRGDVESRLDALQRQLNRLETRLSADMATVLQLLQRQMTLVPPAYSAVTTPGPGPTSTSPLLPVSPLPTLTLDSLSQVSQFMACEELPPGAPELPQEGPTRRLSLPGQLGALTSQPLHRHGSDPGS
Experimental: Effects of compounds on hERG potassium channel conductance was assessed using the automated patch clamp method QPatch^HTX. Compounds were prepared at 10 mM stocks. CHO cells stably expressing hERG potassium channels were used for this assay. Cells were cultured in a humidified and air-controlled 5% CO2) incubator at 37° C. Compound stocks and the positive control Amitriptyline were dissolved in 100% DMSO to make various solution concentrations. These solutions were further diluted into extracellular solution to achieve final concentrations for testing. The final DMSO concentration in extracellular solution was 0.30%. The hERG QPatch^HTX assay was conducted at room temperature.
The following voltage command protocol was used: • From the holding potential of −80 mV, the voltage was first stepped to −50 mV for 80 ms for leak subtraction, and then stepped to +20 mV for 4,800 ms to open hERG channels. • After which, the voltage was stepped back down to −50 mV for 5,000 ms, causing a “rebound” or tail current, which was measured and collected for data analysis. • Finally, the voltage was stepped back to the holding potential of −80 mV for 3,100 ms.
For each experiment, three additions of 5 μL of the vehicle were applied, followed by 30 runs of the voltage command protocol for a baseline period. Then, the ascending doses of each compound were added with three repetitions (5 μL of compound each time).

[8] = Exploratory mouse PK study, single doses PO vs IP; assay type: in vivo; details: single dose 8.3 mg/kg
Experimental: Untreated samples were collected from vehicle control animals. For plasma preparation, whole blood was collected into EDTA-treated tubes. Cells were removed from plasma by centrifugation for 10 minutes at 1,000-2,000×g using a refrigerated centrifuge. The plasma fraction was removed and stored at −80° C.
In order to determine amount (ng/ml) of compound in peripheral circulation, plasma samples were analyzed by mass spectrometry […]. For this analysis, 20 μL of plasma sample was mixed with two volumes of ice-cold internal standard solution (ISS), and centrifuged at 6,100 g for 30 minutes. ISS contained acetonitrile with 100 ng/mL compound, 50 ng/mL dextromethorphan and 50 ng/mL imipramine. Aliquots of the supernatant was transferred to an autosampler plate and diluted with two volumes of 0.2% formic acid in water. Specific analyte concentrations were determined against a standard curve (10,000-5 ng/ml), and mean concentrations+/−standard deviation were calculated.

[9] = 50 mM phosphate buffer, pH 7.4, aqueous buffer, kinetic from dmso stock, read-out: KS7
[10] = simulated gastric fluid, kinetic from dmso stock, kinetic solubility, SGF buffer pH 1.2, 37° C., 24 hours, read-out: KS1

## Cc1nc2c(F)cc(-c3nc(Nc4ccc(CN5CCO[C@@](C)(C[C@H](C)N(C)C)C5)cn4)ncc3F)cc2n1C(C)C [Compound A23]
CDK4
  pKi: 8.96
CDK6
  pKi: 8.19
[1]
  pIC50: 6.92
  Ther Window: 8.44
[2]
  pIC50: 6.00
[3]; [9]
  solubility kinetic at 24 h: 133 µM (≈ 77.1 µg/mL)
[3]; [10]
  solubility kinetic at 24 h: 198 µM (≈ 114 µg/mL)
[4]
  maximum tolerated dose: about 200 mg/kg QD
[5]
  Papp A→B at 2 h, 2 μM: 0.32 ×10⁻⁶ cm/s
[6]
  IC50 at 10 min: 64700 nM
[7]
  half-life at 1 μM: 76.4 min
hERG potassium channels
  hERG: 15.77%

## CNC(=O)C[C@]1(C)CN(Cc2ccc(Nc3ncc(F)c(-c4cc(F)c5nc(C)n(C(C)C)c5c4)n3)nc2)CCO1 [Compound A59, (R)-2-(4-((6-((5-fluoro-4-(4-fluoro-1-isopropyl-2-methyl-1H-benzo[d]imidazol-6-yl)pyrimidin-2-yl)amino)pyridin-3-yl)methyl)-2-methylmorpholin-2-yl)-A-methylacetamide]
CDK4
  pKi: 8.84
CDK6
  pKi: 8.00
[1]
  pIC50: 6.68
  Ther Window: 4.76
[2]
  pIC50: 6.00
[3]; [10]
  solubility kinetic at 24 h: 199 µM (≈ 112 µg/mL)
[5]
  Papp A→B at 2 h, 2 μM: 0.7 ×10⁻⁶ cm/s
[6]
  IC50 at 10 min: 21200 nM
[7]
  half-life at 1 μM: 3.51 min
hERG potassium channels
  hERG: 25.3%

## CCN(CC)CCC1(C)CN(Cc2ccc(Nc3ncc(F)c(-c4cc(F)c5nc(C)n(C(C)C)c5c4)n3)nc2)CCO1 (stereo in doubt) [Compound A3, (S)—N-(5-((2-(2-(diethylamino)ethyl)-2-methylmorpholino)methyl)pyridin-2-yl)-5-fluoro-4-(4-fluoro-1-isopropyl-2-methyl-1H-benzo[d]imidazol-6-yl)pyrimidin-2-amine]
CDK4
  pKi: 8.69
CDK6
  pKi: 8.13
[1]
  pIC50: 7.15
  Ther Window: 13.77
[2]
  pIC50: 6.00
[3]; [9]
  solubility kinetic at 24 h: 163 µM (≈ 96.6 µg/mL)
[3]; [10]
  solubility kinetic at 24 h: 200 µM (≈ 119 µg/mL)
[5]
  Papp A→B at 2 h, 2 μM: 0.05 ×10⁻⁶ cm/s
[6]
  IC50 at 10 min: 37200 nM
[7]
  half-life at 1 μM: 130 min
hERG potassium channels
  hERG: 26.68%

## Cc1nc2c(F)cc(-c3nc(Nc4ccc(CN5CCO[C@](C)(C[C@H](C)N(C)C)C5)cn4)ncc3F)cc2n1C(C)C [Compound A27]
CDK4
  pKi: 8.92
CDK6
  pKi: 8.18
[1]
  pIC50: 7.10
  Ther Window: 11.50
[2]
  pIC50: 6.05
[3]; [9]
  solubility kinetic at 24 h: 107 µM (≈ 61.9 µg/mL)
[3]; [10]
  solubility kinetic at 24 h: 200 µM (≈ 116 µg/mL)
[5]
  Papp A→B at 2 h, 2 μM: 0.06 ×10⁻⁶ cm/s
[6]
  IC50 at 10 min: 25800 nM
[7]
  half-life at 1 μM: 71.2 min
hERG potassium channels
  hERG: 24.78%

## Cc1nc2c(F)cc(-c3nc(Nc4ccc(CN5CCO[C@](C)(CCO)C5)cn4)ncc3F)cc2n1C(C)C [Compound A49, (R)-2-(4-((6-((5-fluoro-4-(4-fluoro-1-isopropyl-2-methyl-1H-benzo[d]imidazol-6-yl)pyrimidin-2-yl)amino)pyridin-3-yl)methyl)-2-methylmorpholin-2-yl)ethan-1-ol]
CDK4
  pKi: 8.96
CDK6
  pKi: 8.13
[1]
  pIC50: 6.82
  Ther Window: 5.76
[2]
  pIC50: 6.05
[8]
  Cmax: high Cmax
  metabolism: rapid metabolism

## Cc1nc2c(F)cc(-c3nc(Nc4ccc(CN5CCO[C@@](C)(CCN(C)C)C5)cn4)ncc3F)cc2n1C(C)C [Compound A1, (S)—N-(5-((2-(2-(dimethylamino)ethyl)-2-methylmorpholino)methyl)pyridin-2-yl)-5-fluoro-4-(4-fluoro-1-isopropyl-2-methyl-1H-benzo[d]imidazol-6-yl)pyrimidin-2-amine]
CDK4
  pKi: 9.19
CDK6
  pKi: 8.54
[1]
  pIC50: 7.05
  Ther Window: 4.25
[2]
  pIC50: 6.40
[3]; [9]
  solubility kinetic at 24 h: 42.5 µM (≈ 24 µg/mL)
[3]; [10]
  solubility kinetic at 24 h: 200 µM (≈ 113 µg/mL)
[4]
  maximum tolerated dose: less than 400 mg/kg QD
[8]
  Cmax: low Cmax
  metabolism: slow metabolism
[8]; vs abemaciclib
  half-life: longer half-life as compared to abemaciclib
[5]
  Papp A→B at 2 h, 2 μM: 0.08 ×10⁻⁶ cm/s
[6]
  IC50 at 10 min: 38000 nM
[7]
  half-life at 1 μM: 152 min
hERG potassium channels
  hERG: 18.98%

## CC(=O)N(C)CC[C@]1(C)CN(Cc2ccc(Nc3ncc(F)c(-c4cc(F)c5nc(C)n(C(C)C)c5c4)n3)nc2)CCO1 [Compound A8, (R)—N-(2-(4-((6-((5-fluoro-4-(4-fluoro-1-isopropyl-2-methyl-1H-benzo[d]imidazol-6-yl)pyrimidin-2-yl)amino)pyridin-3-yl)methyl)-2-methylmorpholin-2-yl)ethyl)-N-methylacetamide]
CDK4
  pKi: 8.75
CDK6
  pKi: 7.95
[1]
  pIC50: 6.77
  Ther Window: 5.64
[2]
  pIC50: 6.01
[3]; [9]
  solubility kinetic at 24 h: 128 µM (≈ 76.1 µg/mL)
[3]; [10]
  solubility kinetic at 24 h: 200 µM (≈ 119 µg/mL)
[5]
  Papp A→B at 2 h, 2 μM: 2.35 ×10⁻⁶ cm/s
[6]
  IC50 at 10 min: 30900 nM
[7]
  half-life at 1 μM: 4.24 min
hERG potassium channels
  hERG: 11.87%

## Cc1nc2c(F)cc(-c3nc(Nc4ccc(CN5CCO[C@](C)(CC(=O)N(C)C)C5)cn4)ncc3F)cc2n1C(C)C [Compound A55, (R)-2-(4-((6-((5-fluoro-4-(4-fluoro-1-isopropyl-2-methyl-1H-benzo[d]imidazol-6-yl)pyrimidin-2-yl)amino)pyridin-3-yl)methyl)-2-methylmorpholin-2-yl)-N,N-dimethylacetamide]
CDK4
  pKi: 8.80
CDK6
  pKi: 7.92
[1]
  pIC50: 6.68
  Ther Window: 4.33
[2]
  pIC50: 6.05
[3]; [10]
  solubility kinetic at 24 h: 196 µM (≈ 113 µg/mL)
[5]
  Papp A→B at 2 h, 2 μM: 0.11 ×10⁻⁶ cm/s
[6]
  IC50 at 10 min: 20100 nM
[7]
  half-life at 1 μM: 5.4 min
hERG potassium channels
  hERG: 26.03%

## Cc1nc2c(F)cc(-c3nc(Nc4ccc(CN5CCO[C@]6(CCN(S(C)(=O)=O)C6)C5)cn4)ncc3F)cc2n1C(C)C [Compound A32]
CDK4
  pKi: 8.51
CDK6
  pKi: 7.76
[1]
  pIC50: 6.80
  Ther Window: 6.24
[2]
  pIC50: 6.00
[3]; [9]
  solubility kinetic at 24 h: 1.6 µM (≈ 0.98 µg/mL)
[3]; [10]
  solubility kinetic at 24 h: 200 µM (≈ 123 µg/mL)
[5]
  Papp A→B at 2 h, 2 μM: 1.08 ×10⁻⁶ cm/s
[6]
  IC50 at 10 min: 31500 nM
[7]
  half-life at 1 μM: 4.24 min
hERG potassium channels
  hERG: 14.35%

## Cc1nc2c(F)cc(-c3nc(Nc4ccc(CN5CCO[C@](C)(CCN6CC(F)(F)C6)C5)cn4)ncc3F)cc2n1C(C)C [Compound A12, (R)—N-(5-((2-(2-(3,3-difluoroazetidin-1-yl)ethyl)-2-methylmorpholino)methyl)pyridin-2-yl)-5-fluoro-4-(4-fluoro-1-isopropyl-2-methyl-1H-benzo[d]imidazol-6-yl)pyrimidin-2-amine]
CDK4
  pKi: 8.66
CDK6
  pKi: 7.89
[1]
  pIC50: 6.96
  Ther Window: 8.17
[2]
  pIC50: 6.07
[3]; [9]
  solubility kinetic at 24 h: 1 µM (≈ 0.613 µg/mL)
[3]; kinetic solubility, SGF buffer pH 1.2, 37° C., 24 hours, read-out: KS1
  solubility kinetic at 24 h: 200.00 µM (≈ 123 µg/mL)
[5]
  Papp A→B at 2 h, 2 μM: 2.62 ×10⁻⁶ cm/s
[6]
  IC50 at 10 min: 21600 nM
[7]
  half-life at 1 μM: 13.1 min
hERG potassium channels
  hERG: 19.54%

## CCC[C@@]1(C)CN(Cc2ccc(Nc3ncc(F)c(-c4cc(F)c5nc(C)n(C(C)C)c5c4)n3)nc2)CCN1 [Compound A47, (S)-5-fluoro-4-(4-fluoro-1-isopropyl-2-methyl-1H-benzo[d]imidazol-6-yl)-N-(5-((3-methyl-3-propylpiperazin-1-yl)methyl)pyridin-2-yl)pyrimidin-2-amine]
CDK4
  pKi: 9.00
CDK6
  pKi: 8.29
[1]
  pIC50: 7.05
  Ther Window: 4.96
[2]
  pIC50: 6.34
[3]; [9]
  solubility kinetic at 24 h: 1 µM (≈ 0.535 µg/mL)
[3]; [10]
  solubility kinetic at 24 h: 193 µM (≈ 103 µg/mL)
[5]
  Papp A→B at 2 h, 2 μM: 0.04 ×10⁻⁶ cm/s
[6]
  IC50 at 10 min: 30000 nM
[7]
  half-life at 1 μM: 126 min
hERG potassium channels
  hERG: 21.76%
